Results from publication PMC5149029, “New Aspects of Silibinin Stereoisomers and their 3-O-galloyl Derivatives on Cytotoxicity and Ceramide Metabolism in Hep G2 hepatocarcinoma Cell Line” (Iranian Journal of Pharmaceutical Research : IJPR, 2016).
Marks after values point to notes of the source that are not given here.

Legend:
[1] = target: T1, glucosyl ceramide synthase (GCS) (Homo sapiens, UniProt Q16739); test: GCS activity assay (C6-NBD-ceramide, HPLC); format: cell-based; conditions: Hep G2, 0-200 µM
T1 construct: endogenous in cells; host or cells: Hep G2
T1 sequence (Q16739 1-394): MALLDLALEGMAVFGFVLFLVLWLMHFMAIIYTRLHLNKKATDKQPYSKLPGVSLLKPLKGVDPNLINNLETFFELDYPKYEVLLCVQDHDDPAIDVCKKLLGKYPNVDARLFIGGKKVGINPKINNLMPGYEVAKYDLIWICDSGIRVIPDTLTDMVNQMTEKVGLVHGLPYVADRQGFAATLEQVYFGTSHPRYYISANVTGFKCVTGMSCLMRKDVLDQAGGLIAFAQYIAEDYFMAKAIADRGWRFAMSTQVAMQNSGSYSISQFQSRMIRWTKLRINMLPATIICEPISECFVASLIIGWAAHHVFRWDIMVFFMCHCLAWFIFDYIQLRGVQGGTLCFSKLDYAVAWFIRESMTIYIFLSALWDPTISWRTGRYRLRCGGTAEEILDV
Method: (§1) The cell line was grown in RPMI-1640 medium supplemented with L-glutamine 2 mM, HEPESNa 25 mM, penicillin 100 U/mL, streptomycin 100 μg/mL and 10% […] (FBS) at 37 °C in a humidified atmosphere containing 5% CO2. Hep G2 cells were seeded at 1 × 10^6 cells/mL and sub cultured every 2–3 days after 60–80% confluence was reached. To prepare the lysates cells attached to the culture plate were scraped off with a cell scraper and collected in a 1.5 mL tube by centrifugation. The cell pellets were rinsed with PBS, suspended in sterile water, and then lysed by sonication. For each experiment, the cells were treated separately with increasing concentrations of silibinin derivatives (0, 25, 50, 75, 100, 125, 150, 175 and 200 μM) and incubated for 48 h.
To determine GCS activities, the fluorescent acceptor substrate C6-4-nitrobenzo-2-oxa-1,3-diazole (NBD)-ceramide and a normal-phase HPLC were used. Acceptor substrate, 50 pM of C6-NBD-Cer and 6.5 nM of lecithin were mixed in 100 µL of ethanol and then the solvent was evaporated. Next, 10 µL of water was added and the mixture was sonicated to form liposomes. For the GCS assay, 50 µL of reaction mixture contains 500 µM UDP-Glc, 1mM EDTA, 10 µL of C6-NBD-Cer liposome and 20 µL of an appropriate amount of enzyme in lysis buffer. Addition of conduritol B epoxide (CBE) at 2.5 mM is effective at inhibiting the glycosidase activity. Standard assays were carried out at 37 °C for 1 h. The reaction was stopped by adding 200 µL of chloroform/methanol (2:1, v/v). After a few seconds of vortexing, 5 µL of 500 µM KCl was added and then centrifuged. After the organic phase had dried up, lipids were dissolved in 200 µL of isopropyl alcohol/n-hexane/H2O (55:44:1) and then transferred to a glass vial in auto sampler. A 100 µL aliquot of sample was automatically loaded onto a normal-phase column (Intersil SIL 150A-5, 4.6 x 250 mm, GL Sciences, Japan) and eluted with isopropyl alcohol/n-hexane/H2O (55:44:1) at a flow rate of 2.0 mL/min. Fluorescence was determined using a fluorescent detector (Hitachi L-7480) set to excitation and emission wavelengths of 470 and 530 nm, respectively. The fluorescent peaks were identified by comparing their retention times with those of standards ([37]).

[2] = tested on: caspase-9; test: Caspase-9 activity, colorimetric substrate Ac-LEHD-pNA; format: cell-based, human; conditions: Hep G2, 48 h, control 0.26
Method: as §1
(§2) The activities of caspase-3 and 9 were measured using colorimetric substrates. Cells were added to a lysis buffer (100 mM HEPES [pH 7.5], 0.1% CHAPS, 1 mM PMSF, 10 mM MDTT, 1 mM EDTA) and placed on ice for 30 min. After the cells were centrifuged at 10,000 × g for 10 min at 4 °C, 50 μg of protein from the supernatants was added to each of the caspase substrates. The colorimetric substrates for caspase-3 and 9 were Ac-DEVD-pNA (Asp-Glu-Val-Asp-pNA) and Ac-LEHD-pNA (N-acetyl-Leu-Glu-His-Asp-pNA), respectively. After a 2 h incubation, to measure p-nitroanilide absorbance was determined at 405 nm ([34]).

[3] = tested on: Hep G2 cells; test: Cell viability, MTT colorimetric assay; format: cell-based; conditions: Hep G2, 48 h
Method: The cell line was grown in RPMI-1640 medium supplemented with L-glutamine 2 mM, HEPESNa 25 mM, penicillin 100 U/mL, streptomycin 100 μg/mL and 10% phosphate-buffered saline (FBS) at 37 °C in a humidified atmosphere containing 5% CO2. Hep G2 cells were seeded at 1 × 10^6 cells/mL and sub cultured every 2–3 days after 60–80% confluence was reached. […] For each experiment, the cells were treated separately with increasing concentrations of silibinin derivatives (0, 25, 50, 75, 100, 125, 150, 175 and 200 μM) and incubated for 48 h.
To measure cell viability, the 3-(4,5-dimethylthiazol-2-yl)-2,5-diphenyl tetrazolium bromide (MTT) colorimetric assay was performed as published ([32], [33]). Briefly, Hep G2 cells were seeded onto 96 flat bottom well plates (50 × 10^3 cells/well) and grown overnight. After the incubation period with silibinin isomers, cells were washed twice with phosphate-buffered saline solution and incubated with MTT solution at a final concentration of 0.5 mg/mL for 3 h and then lysed in dimethyl sulfoxide. Optical density was measured at 540 nm and the background absorbance measured at 660 nm was subtracted. Each experiment was replicated separately for three times.

[4] = tested on: caspase-3; test: Caspase-3 activity, colorimetric substrate Ac-DEVD-pNA; format: cell-based, human; conditions: Hep G2, 48 h, control 0.38
Method: as §1, §2

Row | Compound | GCS activity, effect of treatment [1] | Caspase-9 (ΔOD 405nm) ([2]; 25 micro molar) | Caspase-9 (ΔOD 405nm) ([2]; 50 micro molar) | Caspase-9 (ΔOD 405nm) ([2]; 75 micro molar) | Caspase-9 (ΔOD 405nm) ([2]; 100 micro molar) | Caspase-9 (ΔOD 405nm) ([2]; 125 micro molar) | Caspase-9 (ΔOD 405nm) ([2]; 150 micro molar) | Caspase-9 (ΔOD 405nm) ([2]; 175 micro molar) | Caspase-9 (ΔOD 405nm) ([2]; 200 micro molar) | Cell viability (% of control) ([3]; 25 micro molar) | Cell viability (% of control) ([3]; 50 micro molar) | Cell viability (% of control) ([3]; 75 micro molar) | Cell viability (% of control) ([3]; 100 micro molar) | Cell viability (% of control) ([3]; 125 micro molar) | Cell viability (% of control) ([3]; 150 micro molar) | Cell viability (% of control) ([3]; 175 micro molar) | Cell viability (% of control) ([3]; 200 micro molar) | Caspase-3 (ΔOD 405nm) ([4]; 25 micro molar) | Caspase-3 (ΔOD 405nm) ([4]; 50 micro molar) | Caspase-3 (ΔOD 405nm) ([4]; 75 micro molar) | also measured
1 | COc1cc([C@H]2Oc3cc([C@H]4Oc5cc(O)cc(O)c5C(=O)[C@@H]4O)ccc3O[C@@H]2CO)ccc1O [SA, silybin A] | dose dependent inhibition | 0.41 ± 0.060 ΔOD 405nm | 0.50 ± 0.089 ΔOD 405nm | 0.61 ± 0.102 ΔOD 405nm | 0.73 ± 0.110 ΔOD 405nm | 0.84 ± 0.133 ΔOD 405nm | 0.96 ± 0.143 ΔOD 405nm | 1.10 ± 0.164 ΔOD 405nm | 1.16 ± 0.147 ΔOD 405nm | 97 + 10.0 % of control | 95 + 10.3 % of control | 89 + 11.4 % of control | 83 + 9.5 % of control | 71 + 8.3^* % of control | 63 + 7.4^* % of control | 52 + 6.0^* % of control | 47 + 5.5^* % of control | 0.45 ± 0.055 ΔOD 405nm | 0.58 ± 0.080 ΔOD 405nm | 0.65 ± 0.098 ΔOD 405nm | Caspase-3 (ΔOD 405nm) ([4]; 100 micro molar): 0.79 ± 0.107 ΔOD 405nm; Caspase-3 (ΔOD 405nm) ([4]; 125 micro molar): 0.91 ± 0.133 ΔOD 405nm; Caspase-3 (ΔOD 405nm) ([4]; 150 micro molar): 0.98 ± 0.148 ΔOD 405nm; Caspase-3 (ΔOD 405nm) ([4]; 175 micro molar): 1.12 ± 0.164 ΔOD 405nm; Caspase-3 (ΔOD 405nm) ([4]; 200 micro molar): 1.06 ± 0.152 ΔOD 405nm
2 | COc1cc([C@@H]2Oc3cc([C@H]4Oc5cc(O)cc(O)c5C(=O)[C@@H]4O)ccc3O[C@H]2CO)ccc1O [SB, silybin B] | dose dependent inhibition | 0.30 ± 0.048 ΔOD 405nm | 0.41 ± 0.055 ΔOD 405nm | 0.47 ± 0.070 ΔOD 405nm | 0.56 ± 0.067 ΔOD 405nm | 0.60 ± 0.083 ΔOD 405nm | 0.67 ± 0.105 ΔOD 405nm | 0.81 ± 0.126 ΔOD 405nm | 0.89 ± 0.114 ΔOD 405nm | 94 + 10.3 % of control | 89 + 10.5 % of control | 81 + 10.7^* % of control | 70 + 10.0^* % of control | 60 + 7.9^* % of control | 51 + 7.6^* % of control | 45 + 5.1^* % of control | 40 + 6.0^* % of control | 0.34 ± 0.050 ΔOD 405nm | 0.45 ± 0.060 ΔOD 405nm | 0.58 ± 0.076 ΔOD 405nm | Caspase-3 (ΔOD 405nm) ([4]; 100 micro molar): 0.53 ± 0.065 ΔOD 405nm; Caspase-3 (ΔOD 405nm) ([4]; 125 micro molar): 0.62 ± 0.095 ΔOD 405nm; Caspase-3 (ΔOD 405nm) ([4]; 150 micro molar): 0.73 ± 0.105 ΔOD 405nm; Caspase-3 (ΔOD 405nm) ([4]; 175 micro molar): 0.82 ± 0.130 ΔOD 405nm; Caspase-3 (ΔOD 405nm) ([4]; 200 micro molar): 0.79 ± 0.096 ΔOD 405nm
